Key:
Test in all cases: PNPG hydrolysis, absorbance at […] nm
Type in all cases: biochemical
α-glucosidase [1] = molecular target: T1, α-glucosidase; details: PNPG substrate, 0.2 U/mL enzyme, pH 6.8, 10 min
T1 construct: gene MAL12; pNPG assay at pH 6.8 as usual for the yeast enzyme

α-glucosidase [2] = tested on: T1, α-glucosidase; details: PNPG substrate, 0.2 U/mL enzyme, pH 6.8, 10 min; unreliable: text b23 swaps the parishin B and C values
α-glucosidase [3] = tested on: T1, α-glucosidase; details: PNPG substrate, 0.2 U/mL enzyme, pH 6.8, 10 min; unreliable: text b23 swaps the parishin B and C values; remark: listed apart in the source

## OCc1ccc(O[C@@H]2O[C@H](CO)[C@@H](O)[C@H](O)[C@H]2O)cc1 [GAS]
α-glucosidase [1]
  GAS: 1.23 ± 0.09 mg/mL

## OCc1ccc(O)cc1 [HBA]
α-glucosidase [1]
  HBA: 0.16 ± 0.03 mg/mL

## O=C(CC(O)(CC(=O)OCc1ccc(O[C@@H]2O[C@H](CO)[C@@H](O)[C@H](O)[C@H]2O)cc1)C(=O)OCc1ccc(O[C@@H]2O[C@H](CO)[C@@H](O)[C@H](O)[C@H]2O)cc1)OCc1ccc(O[C@@H]2O[C@H](CO)[C@@H](O)[C@H](O)[C@H]2O)cc1 [Parishin A]
α-glucosidase [1]
  Parishin A: 0.24 ± 0.05 mg/mL

## O=C(O)CC(O)(CC(=O)OCc1ccc(O[C@@H]2O[C@H](CO)[C@@H](O)[C@H](O)[C@H]2O)cc1)C(=O)OCc1ccc(O[C@@H]2O[C@H](CO)[C@@H](O)[C@H](O)[C@H]2O)cc1 (stereo partly drawn) [Parishin B]
α-glucosidase [2]
  Parishin B: 0.13 ± 0.03 mg/mL

## O=C(CC(O)(CC(=O)OCc1ccc(O[C@@H]2O[C@H](CO)[C@@H](O)[C@H](O)[C@H]2O)cc1)C(=O)O)OCc1ccc(O[C@@H]2O[C@H](CO)[C@@H](O)[C@H](O)[C@H]2O)cc1 [Parishin C]
α-glucosidase [3]
  Parishin C: 0.19 ± 0.03 mg/mL

## O=C(O)CC(O)(CC(=O)OCc1ccc(O[C@@H]2O[C@H](CO)[C@@H](O)[C@H](O)[C@H]2O)cc1)C(=O)O (stereo partly drawn) [Parishin E]
α-glucosidase [1]
  Parishin E: 0.54 ± 0.04 mg/mL
